Columns and labels:
Type in all cases: cell-based
[1] = target: T1, PPAR gamma (Homo sapiens, UniProt P37231); assay: Full-length PPAR transcriptional activation assay (PPRE::Luciferase reporter, HEK293 cells), PPAR gamma; settings: transfected HEK293 cells (PPARγ2 plasmid), species of receptor not given
T1 construct: expressed in transfected cells; host or cells: HEK293
T1 sequence (P37231 1-505): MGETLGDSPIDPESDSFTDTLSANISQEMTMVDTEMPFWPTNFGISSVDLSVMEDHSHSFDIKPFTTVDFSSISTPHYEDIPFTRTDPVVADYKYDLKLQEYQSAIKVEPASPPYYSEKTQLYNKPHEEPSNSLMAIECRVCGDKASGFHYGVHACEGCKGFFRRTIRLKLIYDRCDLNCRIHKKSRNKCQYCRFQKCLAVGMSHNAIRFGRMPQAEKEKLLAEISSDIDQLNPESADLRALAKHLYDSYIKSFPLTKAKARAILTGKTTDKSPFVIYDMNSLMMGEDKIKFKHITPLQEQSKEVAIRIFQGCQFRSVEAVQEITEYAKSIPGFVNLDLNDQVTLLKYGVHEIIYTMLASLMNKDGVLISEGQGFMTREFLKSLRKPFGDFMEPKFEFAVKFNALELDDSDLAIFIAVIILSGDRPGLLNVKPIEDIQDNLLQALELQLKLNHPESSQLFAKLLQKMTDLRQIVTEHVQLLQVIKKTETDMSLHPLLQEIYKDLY
Protocol: (§1) HEK293 cells were seeded the day before transfection into 384-well plates at a cell density of 6,000 cells per well in 40 μl assay medium I (phenol red-free DMEM containing 4% charcoal-dextran stripped FBS, 1% Penicillin-Streptomycin and 1% GlutaMax-1). Then 25 ng of PPRE::Luciferase reporter plasmid, an expression plasmid (25 pg of PPARα, or 40 pg of PPARδ, or 75 pg of PPARγ2), and an appropriate amount of the plasmid pUC19 to bring the total DNA amount to 50 ng was added to 20 μl of phenol-red free DMEM and 150 nL of Fugene 6 and incubated for 30 minutes. The transfection mixtures were then added to the cells and incubated for three hours. 10 μl of test agents in 5% DMSO were then added to the cells and incubated at 37° C. for an additional 18 hours. Luciferase activity was then assayed by adding 25 μl/well of Britelite (Perkin Elmer) according to the manufacturer's protocol and relative light output was measured with an Analyst GT plate reader (Molecular Devices). All experimental points were done in triplicate and the assays were repeated at least 3 times.
(§2) HEK293 cells were seeded the day before transfection in […] dishes at a density of 9×10^6 cells/dish and incubated at 37° C., 10% CO2 for 16-24 hours. Then, […] of PPRE::Luciferase reporter plasmid, an expression plasmid (7.5 ng of PPARα, or 7.5 ng of PPARδ, or 75 ng of PPARγ2), and an appropriate amount of the plasmid pUC19 to bring the total DNA amount to […] were mixed with 54 μl of Fugene 6 in 2 mls of phenol red-free DMEM and incubated for 30 minutes. Transfection mixtures were then incubated with the cells for 18 hours. Cells were then replated into sterile, white TC treated 384-well assay plates at a cell density of 24×10^3 cells/well in 40 μl of assay medium II (phenol-red free DMEM containing 3% charcoal/dextran-stripped FBS, 1% Penicillin-Streptomycin and 1% GlutaMax-1) and incubated at 37° C. for 6 hours. 10 μl of test agents in 5% DMSO were then added to the cells and incubated at 37° C. for an additional 18 hours. Luciferase activity was then assayed by adding 30 μl/well of Britelite (Perkin Elmer) according to the manufacturer's protocol and relative light output was measured with an Analyst GT plate reader (Molecular Devices). All experimental points were done in triplicate and the assays were repeated 3 times.

[2] = target: T2, PPAR delta (Homo sapiens, UniProt Q03181); assay: Full-length PPAR transcriptional activation assay (PPRE::Luciferase reporter, HEK293 cells), PPAR delta; settings: transfected HEK293 cells, species of receptor not given
T2 construct: expressed in transfected cells; host or cells: HEK293
T2 sequence (Q03181 1-441): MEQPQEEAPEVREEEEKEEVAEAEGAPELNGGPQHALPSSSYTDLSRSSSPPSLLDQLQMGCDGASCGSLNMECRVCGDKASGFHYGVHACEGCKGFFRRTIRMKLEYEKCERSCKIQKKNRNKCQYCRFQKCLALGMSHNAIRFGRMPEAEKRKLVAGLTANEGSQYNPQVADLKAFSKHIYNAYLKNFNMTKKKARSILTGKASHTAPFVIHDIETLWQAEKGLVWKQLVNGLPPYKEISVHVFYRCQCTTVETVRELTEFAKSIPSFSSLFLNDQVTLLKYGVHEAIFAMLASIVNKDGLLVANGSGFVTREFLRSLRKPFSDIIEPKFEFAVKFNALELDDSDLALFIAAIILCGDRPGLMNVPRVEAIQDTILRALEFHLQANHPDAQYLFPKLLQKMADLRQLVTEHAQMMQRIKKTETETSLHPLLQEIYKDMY
Protocol: as §1, §2

[3] = target: T3, PPAR alpha (Homo sapiens, UniProt Q07869); assay: Full-length PPAR transcriptional activation assay (PPRE::Luciferase reporter, HEK293 cells), PPAR alpha; settings: transfected HEK293 cells, species of receptor not given
T3 construct: expressed in transfected cells; host or cells: HEK293
T3 sequence (Q07869 1-468): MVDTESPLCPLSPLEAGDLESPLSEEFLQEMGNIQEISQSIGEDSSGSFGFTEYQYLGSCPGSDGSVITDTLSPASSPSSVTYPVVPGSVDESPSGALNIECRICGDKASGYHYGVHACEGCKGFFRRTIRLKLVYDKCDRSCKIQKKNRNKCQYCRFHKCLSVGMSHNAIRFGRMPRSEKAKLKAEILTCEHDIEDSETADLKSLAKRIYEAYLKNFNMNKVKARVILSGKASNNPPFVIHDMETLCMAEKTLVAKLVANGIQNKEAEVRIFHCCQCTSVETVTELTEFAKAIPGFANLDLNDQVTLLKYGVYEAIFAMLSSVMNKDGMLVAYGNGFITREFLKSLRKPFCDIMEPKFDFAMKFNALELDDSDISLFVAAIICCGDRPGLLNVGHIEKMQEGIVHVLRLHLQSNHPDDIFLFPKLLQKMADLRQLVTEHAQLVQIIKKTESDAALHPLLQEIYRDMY
Protocol: as §1, §2

EC50 [1]	EC50 [2]	EC50 [3]	Structure (SMILES)
≤ 1000 nM	≤ 1000 nM	> 1000 nM	CCc1cnc(N(CCN2CCc3ccc(CC(=O)O)cc3C2)Cc2ccc(C(F)(F)F)cc2C(F)(F)F)nc1 [Example 4, (2-{2-[(2,4-Bis-trifluoromethyl-benzyl)-(5-ethyl-pyrimidin-2-yl)-amino]-ethyl}-1,2,3,4-tetrahydro-isoquinolin-7-yl)-acetic acid]
> 1000 nM	> 1000 nM	> 1000 nM	CCc1cnc(N(CCCCN2CCc3ccc(CC(=O)O)cc3C2)c2ccc(OC(F)(F)F)cc2)nc1 [Example 5, (2-{4-[(5-Ethyl-pyrimidin-2-yl)-(4-trifluoromethoxy-phenyl)-amino]-butyl}-1,2,3,4-tetrahydro-isoquinolin-7-yl)-acetic acid]
> 1000 nM	> 1000 nM	> 1000 nM	CCc1cnc(N(CCCN2CCc3ccc(CC(=O)O)cc3C2)c2ccc(OC(F)(F)F)cc2)nc1 [Example 6, (2-{3-[(5-Ethyl-pyrimidin-2-yl)-(4-trifluoromethoxy-phenyl)-amino]-propyl}-1,2,3,4-tetrahydroisoquinolin-7-yl)-acetic acid]
> 1000 nM	> 1000 nM	> 1000 nM	CCc1cnc(N(CCCN2CCc3ccc(CC(=O)O)cc3C2)c2ccc(C(F)(F)F)cc2)nc1 [Example 7, (2-[3-[(5-Ethyl-pyrimidin-2-yl)-(4-trifluoromethyl-phenyl)-amino]-propyl]-1,2,3,4-tetrahydroisoquinolin-7-yl)-acetic acid]
> 1000 nM	≤ 1000 nM	> 1000 nM	CCc1cnc(N(CCc2ccc(C(F)(F)F)cc2)CCN2CCc3ccc(CC(=O)O)cc3C2)nc1 [Example 8, [2-(2-{(5-Ethyl-pyrimidin-2-yl)-[2-(4-trifluoromethyl-phenyl)-ethyl]-amino}-ethyl)-1,2,3,4-tetrahydro-isoquinolin-7-yl]-acetic acid]
> 1000 nM	≤ 1000 nM	> 1000 nM	CCc1cnc(N(CCCN2CCc3ccc(CC(=O)O)cc3C2)CCc2ccc(C(F)(F)F)cc2)nc1 [Example 9, [2-(3-{(5-Ethyl-pyrimidin-2-yl)-[2-(4-trifluoromethyl-phenyl)-ethyl]-amino}-propyl)-1,2,3,4-tetrahydro-isoquinolin-7-yl]-acetic acid]
≤ 1000 nM	≤ 1000 nM	> 1000 nM	CCc1cnc(N(CCCC2CCc3ccc(CC(=O)O)cc3O2)Cc2ccc(C(F)(F)F)cc2)nc1 (stereo not drawn) [Example 10, (2-{3-[(5-Ethyl-pyrimidin-2-yl)-(4-trifluoromethyl-benzyl)-amino]-propyl}-chroman-7-yl)-acetic acid]
≤ 1000 nM	≤ 1000 nM	> 1000 nM	CCc1cnc(N(CCCC2CCc3c(CC(=O)O)cccc3O2)Cc2ccc(C(F)(F)F)cc2)nc1 (stereo not drawn) [Example 11, (2-{3-[(5-Ethyl-pyrimidin-2-yl)-(4-trifluoromethyl-benzyl)-amino]-propyl}-chroman-5-yl)-acetic acid]
≤ 1000 nM	≤ 1000 nM	> 1000 nM	CCc1cnc(N(CCCC2CCc3ccc(CC(=O)O)cc3O2)Cc2ccc(OC(F)(F)F)cc2)nc1 (stereo not drawn) [Example 12, 2-(2-(3-((5-Ethylpyrimidin-2-yl)(4-(trifluoromethoxy)benzyl)amino)propyl)chroman-7-yl)acetic acid]
≤ 1000 nM	≤ 1000 nM	> 1000 nM	CCc1cnc(N(CCCC2CCc3c(CC(=O)O)cccc3O2)Cc2ccc(OC(F)(F)F)cc2)nc1 (stereo not drawn) [Example 13, 2-(2-(3-((5-Ethylpyrimidin-2-yl)(4-(trifluoromethoxy)benzyl)amino)propyl)chroman-5-yl)acetic acid]
≤ 1000 nM	≤ 1000 nM	> 1000 nM	CCc1cnc(N(CCCC2CCc3ccc(CC(=O)O)cc3O2)CCc2ccc(OC(F)(F)F)cc2)nc1 (stereo not drawn) [Example 14, 2-(2-(3-((5-Ethylpyrimidin-2-yl)(4-(trifluoromethoxy)phenethyl)amino)propyl)chroman-7-yl)acetic acid]
≤ 1000 nM	≤ 1000 nM	> 1000 nM	CCc1cnc(N(CCCC2CCc3c(CC(=O)O)cccc3O2)CCc2ccc(OC(F)(F)F)cc2)nc1 (stereo not drawn) [Example 15, 2-(2-(3-((5-Ethylpyrimidin-2-yl)(4-(trifluoromethoxy)phenethyl)amino)propyl)chroman-5-yl)acetic acid]
≤ 1000 nM	≤ 1000 nM	≤ 1000 nM	CCc1cnc(N(CCC2CCc3ccc(CC(=O)O)cc3O2)Cc2ccc(C(F)(F)F)cc2)nc1 (stereo not drawn) [Example 16, 2-(2-(2-((5-ethylpyrimidin-2-yl)(4-(trifluoromethyl)benzyl)amino)ethyl)chroman-7-yl)acetic acid]
≤ 1000 nM	≤ 1000 nM	≤ 1000 nM	CCc1cnc(N(CCC2CCc3c(CC(=O)O)cccc3O2)Cc2ccc(C(F)(F)F)cc2)nc1 (stereo not drawn) [Example 17, 2-(2-(2-((5-ethylpyrimidin-2-yl)(4-(trifluoromethyl)benzyl)amino)ethyl)chroman-5-yl)acetic acid]

From patent publication US20070219193A1, “ALKYLAMINE-SUBSTITUTED BICYCLIC ARYL COMPOUNDS USEFUL AS MODULATORS OF PPAR” (KALYPSYS, INC, priority 2006, published 2007)
